This experiment deals with ovariectomized (OVX) female Sprague Dawley rats. The experiment in a line: Osteoporosis Test Procedure (ovariectomized rat, femur density). The experiment is classed as in vivo. As to conditions: orally administered in 20% hydroxypropyl cyclodextrin, daily for 35 days, compared to intact, vehicle treated controls. From the text:
Seventy-five day old female Sprague Dawley rats (weight range of 200 to 225 g) are obtained from Charles River Laboratories (Portage, Mich.). The animals are either bilaterally ovariectomized (OVX) or exposed to a Sham surgical procedure at Charles River Laboratories, and then shipped after one week. Upon arrival, they are housed in metal hanging cages in groups of 3 or 4 per cage and have ad libitum access to food (calcium content approximately 0.5%) and water for one week. Room temperature is maintained at 22.2°±1.70° C. with a minimum relative humidity of 40%. The photoperiod in the room is 12 hours light and 12 hours dark.
After a one week acclimation period (therefore, two weeks post-OVX) daily dosing with test compound is initiated. […] The animals are then sacrificed by asphyxiation with CO2, the uterus is removed through a midline incision, and a wet uterine weight is determined.
Following the General Preparation Procedure, infra, the rats are treated daily for 35 days (6 rats per treatment group) and sacrificed by carbon dioxide asphyxiation on the 36th day. The 35 day time period is sufficient to allow maximal reduction in bone density, measured as described herein. […]
The right femurs are excised and digitilized x-rays generated and analyzed by an image analysis program (NIH image) at the distal metaphysis. […]

Take `C#C[C@]1(O)CC[C@H]2[C@@H]3CCc4cc(O)ccc4[C@H]3CC[C@@]21C` [ethynyl estradiol, 17α-ethynyl estradiol]: the “reduction in femur density caused by ovariectomy” value is “prevented this loss”.

These data come from patent US6391892B1, “Naphthyl pharmaceutical compounds” (Eli Lilly and Company, priority 1995, dated 2002).
